The text below walks through data of ChEMBL document CHEMBL4765331, “Amides of pyrrole- and thiophene-fused anthraquinone derivatives: A role of the heterocyclic core in antitumor properties” (Eur J Med Chem, 2020).

The structures appear in SMILES notation. Active and inactive are the calls of the source. The calls are words filed in the database; no cut-off is given here.

Data set [1] is described as follows: Antiproliferative activity against P-gp-positive/doxorubicin-resistant human K562/4 cells assessed as inhibition of cell proliferation measured after 72 hrs by MTT assay. The data set is classed as functional. The settings on record: K562/4, 72 h.
The subject of data set [2] is HCT-116. The data set is described as follows: Antiproliferative activity against human HCT-116 cells assessed as inhibition of cell proliferation measured after 72 hrs by MTT assay. In kind it is functional, cell-based. The settings on record: HCT-116, 72 h. A general note: Formazan colour is commonly taken as a measure of viable cells.
The subject of data set [3] is HCT-116. Nature of the data set: Antiproliferative activity against human HCT-116 cells with inactivated p53 gene assessed as inhibition of cell proliferation measured after 72 hrs by MTT assay. The data set is classed as functional, cell-based. The conditions noted are these: HCT-116, 72 h.
For the next data set, the system named is HL-60. The data set is described as follows: Antiproliferative activity against human HL-60 cells assessed as inhibition of cell proliferation measured after 72 hrs by MTT assay. The data set is classed as functional, cell-based. The conditions noted are these: HL-60, 72 h.
Data set [4] in a line: Resistance index, ratio of IC50 for human P-gp-positive/Doxorubicin-resistant K562/4 cells to IC50 for human K562 cells. The data set is classed as functional.
The test system of a further data set is K562. The data set is described as follows: Antiproliferative activity against human K562 cells assessed as inhibition of cell proliferation measured after 72 hrs by MTT assay. The settings on record: K562, 72 h. The data set is classed as functional, cell-based.
The next data set relates to TERT-RPE1. The data set is described as follows: Cytotoxicity against human TERT-RPE1 cells assessed as inhibition of cell proliferation measured after 72 hrs by MTT assay. The data set is classed as cell-based. The conditions noted are these: RPE-1, 72 h.
The test system of the next data set is CAPAN-1. Nature of the data set: Antiproliferative activity against human CAPAN-1 cells assessed as inhibition of cell proliferation measured after 72 hrs by MTT assay. The data set is classed as functional, cell-based. The settings on record: CAPAN-1, 72 h.
In a further data set the test system is NCI-H460. The data set is described as follows: Antiproliferative activity against human NCI-H460 cells assessed as inhibition of cell proliferation measured after 72 hrs by MTT assay. In kind it is functional, cell-based. The settings on record: NCI-H460, 72 h.
Data set [5] concerns P388. The data set is described as follows: Antitumour activity against mouse P388 cells xenografted intraperitoneally in BDF1 mouse assessed as […] T/C ratio at 20 mg/kg, ip administered qd for 5 days (reference value: 100%). The data set is classed as functional. The conditions noted are these: dose 20 mg/kg/day; time 5 day.
Data set [6] relates to P388. The data set is described as follows: Antitumour activity against mouse P388 cells xenografted intraperitoneally in BDF1 mouse assessed as mean life span time at 20 mg/kg, ip administered qd for 5 days (reference value: 11.5 +/-0.9 days). In kind it is functional. The settings on record: dose 20 mg/kg/day; time 5 day.
A short description of data set [7]: Drug uptake in mouse NIH3T3 cells assessed as compound localization in nucleus at 1 uM measured after 15 mins by laser scanning microscope. The conditions noted are these: nih3t3, 0.25 h. In kind it is ADME, subcellular.
Data set [8] deals with Calf thymus DNA. Nature of the data set: Binding affinity to calf thymus DNA assessed as dissociation constant by scatchard plot analysis. Set-up: species or system Bos taurus.
Data set [9] relates to Calf thymus DNA. The data set is described as follows: Binding affinity to calf thymus DNA assessed as stoichiometry ratio of compound-DNA complex formation by scatchard plot analysis. The conditions noted are these: Bos taurus.
The test system of data set [10] is Calf thymus DNA. Nature of the data set: Binding affinity to calf thymus double stranded DNA at 10 uM measured after 5 mins by flourescence spectroscopy method. The conditions noted are these: Bos taurus.
For data set [11], the system named is Calf thymus DNA. The data set is described as follows: Binding affinity to calf thymus DNA assessed as DNA intercalation by measuring decrease of negative DNA band at 245 nm at 50 uM by circular dichroism spectral analysis. In kind it is tissue-based. The conditions noted are these: Bos taurus. (In general: Circular dichroism is widely used to follow secondary structure.)

Data set [12] deals with Calf thymus DNA. Nature of the data set: Binding affinity to calf thymus DNA assessed as binding constant by scatchard plot analysis. The settings on record: Bos taurus.

What is called IC50 is the point on the concentration scale where inhibition reaches its midpoint. As for `CCCn1c(C)c(C(=O)N2CC[C@H](N)C2)c2c(O)c3c(c(O)c21)C(=O)c1ccccc1C3=O`, the IC50 in [1] amounted to 7000 nM; in the data set on HCT-116 [2] it was 2200 nM; in the data set with HCT-116 [3], 2000 nM; in the data set on HL-60, 1300 nM; in the data set on K562, 1200 nM; in the data set on TERT-RPE1, 17100 nM. Moreover, the IC50 with CAPAN-1 stood at 4500 nM; in the data set with NCI-H460 it was 14300 nM. Moreover, in data set [4], the “Ratio IC50” value is recorded as 5.8.
In the case of `N[C@@H]1CN(C(=O)c2csc3c(O)c4c(c(O)c23)C(=O)c2ccccc2C4=O)C[C@H]1N`, the IC50 in [1] turned out to be 14500 nM; in the data set with HCT-116 [2] it was 4000 nM; in the data set with HCT-116 [3], 3800 nM; with HL-60, 4700 nM; in the data set with K562, 1300 nM; with TERT-RPE1, 9100 nM. Further, the IC50 in the data set with CAPAN-1 is 2600 nM; with NCI-H460, 12700 nM. In addition, the “Ratio IC50” value in data set [4] was 11.2.
In the case of `Cc1c(C(=O)N2CC[C@H](N)C2)c2c(O)c3c(c(O)c2n1Cc1ccccc1)C(=O)c1ccccc1C3=O`, the IC50 in data set [1] was determined as 5500 nM; with HCT-116 [2], 1800 nM; in the data set on HCT-116 [3] it was 1800 nM; with HL-60 it was 1100 nM; in the data set on K562, 700 nM; with TERT-RPE1, 14700 nM. Moreover, the half-inhibitory concentration (IC50) amounted to 1600 nM with CAPAN-1 and 5400 nM in the data set on NCI-H460. For the same compound, in data set [4], the “Ratio IC50” value worked out at 7.9.
As usually defined, the T/C is the ratio of treated to control. As to `Cc1[nH]c2c(O)c3c(c(O)c2c1C(=O)N1CC[C@@H](N)C1)C(=O)c1ccccc1C3=O`, the IC50 came out at 1500 nM with HCT-116 [2]; 200 nM in the data set on HL-60; 300 nM in the data set on K562; 15900 nM in the data set with TERT-RPE1; 500 nM with CAPAN-1; 500 nM in the data set on NCI-H460. Also, in the data set with P388 [5], the T/C was 150%. Moreover, the Time in the data set with P388 [6] is 17.3 days.
As to `COc1cccc2c1C(=O)c1c(O)c3c(c(O)c1C2=O)C[C@@](O)(C(=O)CO)C[C@@H]3O[C@H]1C[C@H](N)[C@H](O)[C@H](C)O1` [DOXORUBICIN], the half-maximal inhibitory concentration (IC50) in [1] came to 5500 nM; in the data set on TERT-RPE1, 1000 nM; with CAPAN-1, 1700 nM; in the data set with NCI-H460, 400 nM. In data set [7], the Drug uptake result is reported as “Active”.
In the case of `Cc1[nH]c2c(O)c3c(c(O)c2c1C(=O)N1C[C@@H](N)[C@H](N)C1)C(=O)c1ccccc1C3=O`, the IC50 was above 50000 nM in data set [1]; 4800 nM in the data set on HCT-116 [2]; 7000 nM in the data set on HCT-116 [3]; 3100 nM with HL-60; 2400 nM in the data set with K562; above 20000 nM in the data set with TERT-RPE1. Moreover, the values for the half-inhibitory concentration (IC50) in the data set with CAPAN-1 and with NCI-H460 were 8700 nM and 11400 nM, respectively. In data set [4], the “Ratio IC50” value was above 20.8.
On to `CCn1c(C)c(C(=O)N2CC[C@H](N)C2)c2c(O)c3c(c(O)c21)C(=O)c1ccccc1C3=O`, for which the IC50 in data set [1] stood at 28000 nM; with HCT-116 [2], 2300 nM; in the data set with HCT-116 [3] it was 2500 nM; in the data set on HL-60 it was 1100 nM; in the data set on K562 it was 1700 nM; with TERT-RPE1 it was 13600 nM. For the same compound, the IC50 worked out at 1200 nM with CAPAN-1 and 2100 nM in the data set on NCI-H460. Further, in data set [4], the “Ratio IC50” value is on record as 16.5.
What is called Kd is the free concentration of one partner at which half of the binding sites on the other are occupied at equilibrium, for simple one-to-one binding. Turning to `Cc1c(C(=O)N2CC[C@H](N)C2)c2c(O)c3c(c(O)c2n1C)C(=O)c1ccccc1C3=O`, in the data set on Calf thymus DNA [8], the Kd turned out to be 1300 nM. The IC50 in [1] is 25000 nM; in the data set with HCT-116 [2], 1800 nM; with HCT-116 [3], 3200 nM; in the data set with HL-60, 700 nM; in the data set with K562, 1200 nM; with TERT-RPE1 it was 16100 nM. Besides, the values for the IC50 in the data set on CAPAN-1 and in the data set on NCI-H460 were 1100 nM and 16300 nM, respectively. The Ratio in the data set on Calf thymus DNA [9] stood at 3. Further, the outcome in the data set on Calf thymus DNA [10] and in the data set with Calf thymus DNA [11] was Active. Further, the “Ratio IC50” value in data set [4] stood at 19.2. Moreover, in the data set on Calf thymus DNA [12], the Kb is 7.5 10^5/M.
For `Cc1[nH]c2c(O)c3c(c(O)c2c1C(=O)N[C@@H]1CCNC1)C(=O)c1ccccc1C3=O`, the 50% inhibitory concentration (IC50) stood at 2300 nM with HCT-116 [2]; 1000 nM with HL-60; 800 nM with K562; 14700 nM in the data set on TERT-RPE1; 1000 nM in the data set on CAPAN-1; 4400 nM with NCI-H460.
As for `N[C@@H]1CCN(C(=O)c2csc3c(O)c4c(c(O)c23)C(=O)c2ccccc2C4=O)C1`, the IC50 amounted to 2000 nM in the data set with HCT-116 [2]; 4100 nM with HL-60; 1200 nM in the data set with K562; 12600 nM with TERT-RPE1; 2000 nM in the data set on CAPAN-1; 800 nM in the data set on NCI-H460.
